Read-outs that look alike come from different tables or passages of the source.
How the values were obtained:
[1] = In-vitro liver microsomal stability (dog); format: in vitro ADME; conditions: Dog liver microsomes, 1 µM, 0.5 mg/mL, NADPH
Description: (§1) Test Example 3. Evaluation of In-Vitro Liver Microsomal Stability
(§2) • 1) Preparation of test sample working solution: A test sample was diluted to 100 µM with methanol. • 2) Preparation of liver microsome working solution: Liver microsomes were diluted to 0.56 mg/mL with 100 mM phosphate-buffered saline. • 3) Preparation of working solution of reduced nicotinamide adenine dinucleotide phosphate (NADPH): A proper amount of NADPH was weighed out and diluted to 20 mM with phosphate-buffered saline, and then an equal volume of a 60 mM MgCl2 solution was added. • 4) Preparation of stop solution: Tolbutamide was diluted to 20 ng/mL with acetonitrile to serve as a stop solution containing an internal standard.
• 1) Anti-adsorption EP tubes for incubation were prepared and labeled with species, test samples, control samples (testosterone and dextromethorphan), time points (0 min, 5 min, 10 min, 20 min, 30 min, 60 min, Blank60, and NCF60), etc. • 2) 2 µL of test or control sample working solution and 178 µL of liver microsome working solution were added to each tube. For the Blank tube, 2 µL of acetonitrile was added instead of the test sample. The tubes were preincubated in a water bath at 37 °C for about 10 min, with 3 replicates set up for each sample. • 3) After the pre-incubation was completed, 20 µL of NADPH working solution was added to each tube except for the 0 min and NCF60 tubes to start the reaction. For the NCF60 tube, 20 µL of phosphate-buffered saline (containing 30 mM MgCl2) was added. In the incubation system, the final concentration of the test or control sample was 1 µM, the final concentration of liver microsomes was 0.5 mg/mL, the final concentration of NADPH was 1 mM, and the final concentration of MgCl2 was 3 mM. • 4) For the 0 min sample, 600 µL of stop solution was added, followed by the addition of the NADPH working solution. For the other samples, after each of them was incubated for the corresponding time, 600 µL of stop solution was added to stop the reaction. • 5) After the reaction was stopped, each sample was vortexed for 30 s and then centrifuged at 13500 rpm for 10 min. Then, 100 µL of the supernatant was transferred to an EP tube, and 100 µL of Milli-Q water was added. The mixture was well mixed by vortexing and analyzed by LC-MS/MS. • 6) Testosterone and dextromethorphan were used as positive control samples under the same conditions to assess the stability and reliability of the system. […]

5-HT2A receptor = 5-HT2A receptor (Homo sapiens, UniProt P28223); experiment: Assay for 5-HT2A receptor inverse agonist activity (NIH3T3-5-HT2A R cells, Bright-Glo luciferase, cell inhibition rate)
Chain of 5-HT2A receptor (P28223 whole entry): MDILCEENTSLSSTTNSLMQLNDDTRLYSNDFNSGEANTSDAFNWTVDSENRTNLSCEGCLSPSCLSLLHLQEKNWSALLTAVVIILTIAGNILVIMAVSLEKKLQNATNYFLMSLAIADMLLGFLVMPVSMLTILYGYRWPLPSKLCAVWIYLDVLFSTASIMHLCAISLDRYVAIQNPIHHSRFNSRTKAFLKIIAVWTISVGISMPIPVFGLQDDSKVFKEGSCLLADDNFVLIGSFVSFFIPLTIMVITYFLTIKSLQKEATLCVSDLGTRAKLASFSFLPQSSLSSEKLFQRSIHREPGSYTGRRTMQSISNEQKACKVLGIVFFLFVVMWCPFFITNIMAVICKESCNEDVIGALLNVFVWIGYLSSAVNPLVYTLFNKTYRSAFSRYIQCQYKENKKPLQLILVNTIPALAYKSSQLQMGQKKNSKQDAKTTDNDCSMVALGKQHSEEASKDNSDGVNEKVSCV
Description: Assay for 5-HT2A Receptor Inverse Agonist Activity
• Cell line: adherent cells NIH3T3-5-HT2A R • Cell culture medium: DMEM + 10% FBS (purchased from GBICO) • Cell culture plate: 96-well white/clear bottom plate (purchased from Perkin Elmer) • Detection kit: Bright-Glo™ Luciferase (purchased from Promega) • Detection instrument: BioTek multimode microplate reader
NIH3T3-5HT2A R cells in the logarithmic growth phase were seeded into a 96-well white/clear bottom plate at a density of 1000 cells/well and then cultured overnight in an incubator at 37 °C with 5% CO2. […] Duplicate wells were set up for each concentration. […] After the drug addition, the cells were cultured in the incubator at 37 °C with 5% CO2 for another 120 h. On the sixth day, a Bright-Glo™ Luciferase reagent was added to the cells in a volume equal to that of the cell culture medium. The plate was then incubated in the dark at room temperature for 20 min, with the plate shaker vibrating once every 5 min. The luminescence intensity was detected using a microplate reader, and the cell inhibition rate was calculated. Data were processed using GraphPad Prism 7.0 to obtain the cell inhibition rate curve and calculate IC50.

hERG potassium channels = hERG potassium channels (Homo sapiens, UniProt Q12809); experiment: cell-based
Chain of hERG potassium channels (Q12809 whole entry): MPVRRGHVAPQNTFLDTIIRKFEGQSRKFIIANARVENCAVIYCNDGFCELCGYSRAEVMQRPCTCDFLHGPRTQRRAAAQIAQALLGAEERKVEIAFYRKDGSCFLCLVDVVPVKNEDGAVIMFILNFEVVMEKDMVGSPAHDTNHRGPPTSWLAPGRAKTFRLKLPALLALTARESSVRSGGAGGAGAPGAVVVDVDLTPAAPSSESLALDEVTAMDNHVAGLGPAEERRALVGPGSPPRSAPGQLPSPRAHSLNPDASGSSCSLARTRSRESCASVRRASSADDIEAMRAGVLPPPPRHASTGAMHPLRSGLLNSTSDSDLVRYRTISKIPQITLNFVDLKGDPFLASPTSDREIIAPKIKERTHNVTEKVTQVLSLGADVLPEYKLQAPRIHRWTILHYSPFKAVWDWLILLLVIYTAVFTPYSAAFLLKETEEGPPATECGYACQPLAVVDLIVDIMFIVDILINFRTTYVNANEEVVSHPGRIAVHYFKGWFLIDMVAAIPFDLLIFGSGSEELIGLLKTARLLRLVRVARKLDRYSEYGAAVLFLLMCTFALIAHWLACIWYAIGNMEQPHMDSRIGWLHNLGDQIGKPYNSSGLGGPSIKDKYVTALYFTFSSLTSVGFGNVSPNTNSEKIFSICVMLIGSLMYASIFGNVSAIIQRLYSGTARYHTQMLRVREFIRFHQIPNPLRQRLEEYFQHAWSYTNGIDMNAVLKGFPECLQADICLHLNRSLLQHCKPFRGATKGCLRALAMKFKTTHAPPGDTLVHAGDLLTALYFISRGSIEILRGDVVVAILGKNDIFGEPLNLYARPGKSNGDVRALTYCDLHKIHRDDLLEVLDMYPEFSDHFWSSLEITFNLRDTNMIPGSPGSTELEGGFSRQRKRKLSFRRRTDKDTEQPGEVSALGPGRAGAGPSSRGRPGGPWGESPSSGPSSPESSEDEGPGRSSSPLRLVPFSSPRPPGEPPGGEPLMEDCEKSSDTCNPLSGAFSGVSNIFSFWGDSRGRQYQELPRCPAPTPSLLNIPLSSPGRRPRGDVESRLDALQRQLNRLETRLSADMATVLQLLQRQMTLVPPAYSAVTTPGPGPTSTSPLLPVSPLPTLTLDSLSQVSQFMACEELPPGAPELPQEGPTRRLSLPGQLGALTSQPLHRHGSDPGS
Description: • Species & strain: CHO-hERG cell line (Chinese hamster ovary cells stably expressing hERG channels) • Culture medium: 90% F12, 10% fetal bovine serum, 100 µg/mL G418, and 100 µg/mL Hygromycin B • Culture conditions: incubator at 37 °C with 5% CO2 • Cryopreservation condition: liquid nitrogen
On the day of the test, the compound was diluted with DMSO to an intermediate concentration. Then, 10 µL of the intermediate-concentration compound was transferred to 4990 µL of extracellular fluid, achieving a 500-fold dilution to obtain the final concentration to be tested.
hERG potassium channel currents were recorded at room temperature by the whole-cell patch clamp technique in the CHO (Chinese hamster ovary) cells stably expressing hERG potassium channels. Glass microelectrodes were formed by pulling a glass electrode blank (BF150-86-10, Sutter) using a puller. The tip resistance after perfusion of electrode internal solution was about 2-5 MΩ. The glass microelectrodes could be connected to a patch clamp amplifier after being inserted into amplifier probes. The clamping voltage and data recording were controlled and recorded by a computer with a pClamp 10 software, with a sampling frequency of 10 kHz and a filtering frequency of 2 kHz. After achieving the whole-cell recording, the cells were clamped at -80 mV. The step voltage evoking hERG potassium current (IhERG) was changed from -80 mV to +20 mV by applying a 2 s depolarization voltage, followed by repolarization to -50 mV for 1 s, and then returned to -80 mV. This voltage stimulation was applied every 10 s, and after it was determined that the hERG potassium currents were stable (1 min), the administration process was started. Each test concentration of the compound was applied for at least 1 min, and at least 2 cells (n ≥ 2) were tested for each concentration.

[2] = In-vitro liver microsomal stability (human); format: in vitro ADME; conditions: Human liver microsomes, 1 µM, 0.5 mg/mL, NADPH
Description: as §1, §2
• 1) Anti-adsorption EP tubes for incubation were prepared and labeled with species, test samples, control samples (testosterone and dextromethorphan), time points (0 min, 5 min, 10 min, 20 min, 30 min, 60 min, Blank60, and NCF60), etc. • 2) 2 µL of test or control sample working solution and 178 µL of liver microsome working solution were added to each tube. For the Blank tube, 2 µL of acetonitrile was added instead of the test sample. The tubes were preincubated in a water bath at 37 °C for about 10 min, with 3 replicates set up for each sample. • 3) After the pre-incubation was completed, 20 µL of NADPH working solution was added to each tube except for the 0 min and NCF60 tubes to start the reaction. For the NCF60 tube, 20 µL of phosphate-buffered saline (containing 30 mM MgCl2) was added. In the incubation system, the final concentration of the test or control sample was 1 µM, the final concentration of liver microsomes was 0.5 mg/mL, the final concentration of NADPH was 1 mM, and the final concentration of MgCl2 was 3 mM. • 4) For the 0 min sample, 600 µL of stop solution was added, followed by the addition of the NADPH working solution. For the other samples, after each of them was incubated for the corresponding time, 600 µL of stop solution was added to stop the reaction. • 5) After the reaction was stopped, each sample was vortexed for 30 s and then centrifuged at 13500 rpm for 10 min. Then, 100 µL of the supernatant was transferred to an EP tube, and 100 µL of Milli-Q water was added. The mixture was well mixed by vortexing and analyzed by LC-MS/MS. • 6) Testosterone and dextromethorphan were used as positive control samples under the same conditions to assess the stability and reliability of the system.
Table 2: Test data for the compounds of the present disclosure in human and rat liver microsomes

[3] = 5-HT2A inverse agonist activity IC50 (nM), NIH3T3-5HT2A R cells, 120 h, luminescence

| SMILES | IC50 (5-HT2A receptor; [3]) [nM] | IC50 (5-HT2A receptor) [nM] | also measured |
| --- | --- | --- | --- |
| CN1CCC(N(Cc2ccc(F)cn2)C(=O)NCc2ccc3ncccc3c2)CC1 [Compound 10] | 29.6 |  | Remaining amount% at 60 min [1]: 58.6%; IC50 (hERG potassium channels): 3860 nM; Remaining amount% at 60 min [2]: 71.9% |
| CN1CC2CCC(C1)C2N(Cc1ccc(F)cn1)C(=O)NCc1ccc(OCC(F)(F)F)nc1 (stereo not shown) [Compound 77] |  | > 1000 |  |
| CN1CCC(N(Cc2ccc(F)cn2)C(=O)NCc2ccc3c(c2)C=CC3)CC1 [Compound 59] |  | 86.1 | IC50 (hERG potassium channels): 1480 nM |
| CN1CC[C@@H](N(Cc2ccc(F)cc2)C(=O)NCc2ccc3c(ccn3C)c2)[C@@H](F)C1 (single isomer, unassigned) [Compound 85A] | > 1000 |  |  |
| CN1CCC(N(Cc2ccc(F)cn2)C(=O)NCc2ccc(OCC3CC3(C)C)cn2)CC1 (stereo not shown) [Compound 4] |  | > 1000 |  |
| CN1CCC(N(Cc2ccc(F)cn2)C(=O)NCc2ccc3c(c2)CCC3)CC1 [Compound 60] |  | 64.4 |  |
| CN1CCC(N(Cc2ccc(F)cn2)C(=O)NCc2ccc(OCC(F)(F)F)nc2)C(C)(C)C1 (single isomer, unassigned) [Compound 49B] | > 1000 |  |  |
| CC(C)N1CC[C@H](N(Cc2ccc(F)cn2)C(=O)NCc2ccc(OCC(F)(F)F)nc2)[C@H](F)C1 (single isomer, unassigned) [Compound 70B] | 280 |  |  |
| CN1CCC(N(Cc2ccc(F)cn2)C(=O)NCc2ccc(OCC(F)(F)F)nc2)C(C)(C)C1 (single isomer, unassigned) [Compound 49A] | 105 |  |  |
| CN1CCC(N(Cc2ccc(F)cn2)C(=O)NCc2ccc(OCC(F)(F)F)nc2)C(F)(F)C1 (single isomer, unassigned) [Compound 46A] | > 1000 |  | Remaining amount% at 60 min [1]: 40.77%; Remaining amount% at 60 min [2]: 1.21% |
| [2H]C([2H])([2H])N1CC[C@H](N(Cc2ccc(F)cn2)C(=O)NCc2ccc(OCC(F)(F)F)nc2)[C@H](F)C1 (single isomer, unassigned) [Compound 72B] | 43.7 |  |  |
| CN1CCC(N(Cc2ccc(F)cn2)C(=O)NCc2cnc(OC3CC(F)(F)C3)c(F)c2)CC1 [Compound 19] |  | 33.1 | Remaining amount% at 60 min [1]: 78.39%; Remaining amount% at 60 min [2]: 72.49% |
| CN1CCC(N(Cc2ccc(F)cn2)C(=O)NCc2ccc3occc3c2)CC1 [Compound 57] | 51.9 |  | IC50 (hERG potassium channels): 1440 nM |
| CC(C)COc1ccc(CNC(=O)N(Cc2ccc3ncccc3c2)C2CCN(C)CC2)cc1 [Compound 7] |  | > 1000 | IC50 (hERG potassium channels): 1320 nM |
| CN1CCC(N(Cc2ccc(F)cn2)C(=O)NCc2ccc3nc[nH]c3c2)CC1 [Compound 11] |  | 672 |  |
| CN1CC[C@H](N(Cc2ccc(F)cc2)C(=O)NCc2ccc3c(ccn3C)c2)[C@H](F)C1 (single isomer, unassigned) [Compound 85B] | 88.7 |  |  |
| CCN1CC[C@H](N(Cc2ccc(F)cn2)C(=O)NCc2ccc(OCC(F)(F)F)nc2)[C@H](F)C1 (single isomer, unassigned) [Compound 69B] | 156 |  |  |
| CCN1CC[C@@H](N(Cc2ccc(F)cn2)C(=O)NCc2ccc(OCC(F)(F)F)nc2)[C@@H](F)C1 (single isomer, unassigned) [Compound 69A] | > 1000 |  |  |
| CC(C)N1CC[C@@H](N(Cc2ccc(F)cn2)C(=O)NCc2ccc(OCC(F)(F)F)nc2)[C@@H](F)C1 (single isomer, unassigned) [Compound 70A] | > 1000 |  |  |
| CN1CCC(N(Cc2ccc(F)cn2)C(=O)NCc2ccc(OC3CC3)cn2)CC1 [Compound 2] |  | 72.8 | Remaining amount% at 60 min [1]: 76.7%; Remaining amount% at 60 min [2]: 79.7% |
| Cc1cc(CN(C(=O)NCc2ccc(OCC(F)(F)F)nc2)[C@H]2CCN(C)C[C@H]2F)nn1C [Compound 82B] |  | 664 |  |

| SMILES | IC50 (5-HT2A receptor; [3]) [nM] | IC50 (5-HT2A receptor) [nM] | also measured |
| --- | --- | --- | --- |
| O=C(NCc1ccc(OCC(F)(F)F)nc1)N(Cc1ccc(F)cn1)C1CCNCC1F (single isomer, unassigned) [Compound 56B] | 325 |  | IC50 (hERG potassium channels): 12600 nM |
| CN1CCC(N(Cc2ccc(F)cn2)C(=O)NCc2ccc3sccc3c2)CC1 [Compound 58] |  | 41 |  |
| CC(C)COc1ccc(CNC(=O)N(Cc2ccc3ncccc3c2)C2CCN(C)CC2)nc1 [Compound 8] |  | > 1000 |  |
| CN1C2CCC1CC(N(Cc1ccc(F)cn1)C(=O)NCc1ccc(OCC(F)(F)F)nc1)C2 (stereo not shown) [Compound 79] |  | 771 |  |
| CN1CCC(N(Cc2ccc(F)cn2)C(=O)NCc2ccc3c(c2)c(C(F)(F)F)cn3C)CC1 [Compound 84] |  | > 1000 |  |
| CN1CCC(N(Cc2ccc(F)cc2)C(=O)NCc2ccc(OCC(F)(F)F)nc2)C2(CC2)C1 (single isomer, unassigned) [Compound 83B] | 211 |  |  |
| CN1CCC(N(Cc2ccc(F)cn2)C(=O)NCc2ccc(OCC(F)(F)F)nc2)CC1 [Compound 5] | 13.1 |  | Remaining amount% at 60 min [1]: 99.8%; Remaining amount% at 60 min [2]: 99.9% |
| CN1CCC(N(Cc2ccc(F)cn2)C(=O)NCc2ccc(OC3CC(F)(F)C3)nc2)CC1 [Compound 6] | 25.4 |  | Remaining amount% at 60 min [1]: 98.8%; Remaining amount% at 60 min [2]: 90.8% |
| CN1CC[C@H](N(Cc2ccc(F)cc2)C(=O)NCc2ccc3ncccc3c2)[C@H](F)C1 [Compound 86B] |  | 36.8 |  |
| CN1CC[C@@H](N(Cc2ccc(F)cc2)C(=O)NCc2ccc3ncccc3c2)[C@@H](F)C1 [Compound 86A] |  | > 1000 |  |
| CN1CCC(N(Cc2ccc(F)cc2)C(=O)NCc2ccc(OCC(F)(F)F)nc2)C2(CC2)C1 (single isomer, unassigned) [Compound 83A] | 10.4 |  |  |
| CN1CCC(N(Cc2ccc(F)cn2)C(=O)NCc2ccc(OCC3CC3)cn2)CC1 [Compound 3] |  | 149 | Remaining amount% at 60 min [1]: 100.0%; Remaining amount% at 60 min [2]: 94.1% |
| CC(C)COc1ccc(CNC(=O)N(Cc2ccc(F)cc2)C2CCN(C)CC2)cc1 [Pimavanserin, reference compound] |  |  | Remaining amount% at 60 min [1]: 68.5%; Remaining amount% at 60 min [2]: 70.7% |
| [2H]C([2H])([2H])N1CC[C@@H](N(Cc2ccc(F)cn2)C(=O)NCc2ccc(OCC(F)(F)F)nc2)[C@@H](F)C1 (single isomer, unassigned) [Compound 72A] | 416 |  |  |
| O=C(NCc1ccc(OCC(F)(F)F)nc1)N(Cc1ccc(F)cn1)C1CCNCC1F (single isomer, unassigned) [Compound 56A] | > 1000 |  | IC50 (hERG potassium channels): 15500 nM |
| CN1CCC(N(Cc2ccc(F)cn2)C(=O)NCc2ccc3ccccc3c2)CC1 [Compound 61] |  | 79.2 |  |
| Cc1cc(CN(C(=O)NCc2ccc(OCC(F)(F)F)nc2)[C@@H]2CCN(C)C[C@@H]2F)nn1C [Compound 82A] |  | > 1000 |  |
| CN1CC[C@@H](N(Cc2ccc(F)cn2)C(=O)NCc2ccc(OCC(F)(F)F)nc2)[C@H](F)C1 [Compound 67] |  | > 1000 | Remaining amount% at 60 min [1]: 81.4%; Remaining amount% at 60 min [2]: 66.2% |
| CN1CCC(N(Cc2ccc(F)cn2)C(=O)NCc2ccc(OCC(F)(F)F)nc2)C2(CC2)C1 (single isomer, unassigned) [Compound 50B] | 381 |  |  |
| CN1CCC(N(Cc2ccc(F)cn2)C(=O)NCc2ccc3c(c2)c(F)cn3C)CC1 [Compound 13] |  | 184 |  |
